Test results taken from ChEMBL document CHEMBL1909046, “DrugMatrix in vitro pharmacology data”.

How the values were obtained:
[1] = DRUGMATRIX: ATPase, Na+/K+ enzyme inhibition (substrate: ATP); format: tissue-based, Sus scrofa, Heart; conditions: Not Active = under 50% inhibition at 10 µM
[2] = molecular target: D(3) dopamine receptor (Homo sapiens, UniProt P35462); experiment: DRUGMATRIX: Dopamine D3 radioligand binding (ligand: [3H] Spiperone); format: cell membranes, CHO, Membrane; conditions: cho
Chain of D(3) dopamine receptor (P35462 whole entry): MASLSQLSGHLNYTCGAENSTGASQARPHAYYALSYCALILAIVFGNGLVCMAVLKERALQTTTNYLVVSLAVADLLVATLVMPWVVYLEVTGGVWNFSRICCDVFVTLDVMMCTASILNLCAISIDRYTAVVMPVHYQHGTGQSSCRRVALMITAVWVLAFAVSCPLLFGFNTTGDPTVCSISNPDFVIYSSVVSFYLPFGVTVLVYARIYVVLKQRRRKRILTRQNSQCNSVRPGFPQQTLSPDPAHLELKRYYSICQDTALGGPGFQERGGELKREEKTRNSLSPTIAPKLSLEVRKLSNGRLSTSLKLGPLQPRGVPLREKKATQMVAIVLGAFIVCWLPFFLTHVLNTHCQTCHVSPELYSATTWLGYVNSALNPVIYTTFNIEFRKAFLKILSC

[3] = molecular target: T1, D(4) dopamine receptor (Homo sapiens, UniProt P21917); experiment: DRUGMATRIX: Dopamine D4.2 radioligand binding (ligand: [3H] Spiperone); format: cell membranes, CHO-K1, Membrane; conditions: cho-k1; Not Active = under 50% inhibition at 10 µM
T1 sequence (P21917 whole entry): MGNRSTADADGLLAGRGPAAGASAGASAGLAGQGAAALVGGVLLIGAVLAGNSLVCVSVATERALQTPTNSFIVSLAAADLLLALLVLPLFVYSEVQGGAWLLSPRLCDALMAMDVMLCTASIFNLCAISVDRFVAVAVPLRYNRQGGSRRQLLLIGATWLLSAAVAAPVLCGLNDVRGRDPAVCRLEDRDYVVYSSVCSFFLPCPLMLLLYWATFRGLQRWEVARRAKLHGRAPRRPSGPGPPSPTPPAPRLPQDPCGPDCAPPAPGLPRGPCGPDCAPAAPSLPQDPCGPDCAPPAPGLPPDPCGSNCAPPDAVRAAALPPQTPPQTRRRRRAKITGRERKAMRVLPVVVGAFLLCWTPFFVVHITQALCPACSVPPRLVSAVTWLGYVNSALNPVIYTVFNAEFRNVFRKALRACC

[4] = molecular target: T2, Amine oxidase [flavin-containing] A (Homo sapiens, UniProt P21397); experiment: DRUGMATRIX: Monoamine Oxidase MAO-A enzyme inhibition (substrate: Kynuramine); parameters: species or system BTI-TN-5B1-4; conditions: bti-tn-5b1-4; Not Active = under 50% inhibition at 10 µM
T2 sequence (P21397 whole entry): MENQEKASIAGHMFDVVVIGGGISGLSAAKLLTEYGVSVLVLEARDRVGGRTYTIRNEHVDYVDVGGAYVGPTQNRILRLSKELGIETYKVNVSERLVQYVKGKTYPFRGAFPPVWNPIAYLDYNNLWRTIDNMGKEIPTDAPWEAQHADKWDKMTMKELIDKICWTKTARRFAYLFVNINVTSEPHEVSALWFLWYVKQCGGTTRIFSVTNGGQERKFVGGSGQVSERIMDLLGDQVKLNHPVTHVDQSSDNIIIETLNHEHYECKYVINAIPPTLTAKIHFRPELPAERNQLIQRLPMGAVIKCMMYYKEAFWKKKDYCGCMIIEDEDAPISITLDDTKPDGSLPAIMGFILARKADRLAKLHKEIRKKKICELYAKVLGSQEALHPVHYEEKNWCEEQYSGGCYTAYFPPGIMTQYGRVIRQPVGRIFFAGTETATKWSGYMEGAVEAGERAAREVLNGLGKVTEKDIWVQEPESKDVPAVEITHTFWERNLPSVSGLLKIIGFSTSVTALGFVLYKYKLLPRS

[5] = molecular target: Delta-type opioid receptor (Homo sapiens, UniProt P41143); format: cell membranes, Membrane; conditions: hek293; further: in other assays of this panel Not Active means under 50% inhibition at 10 µM
Chain of Delta-type opioid receptor (P41143 whole entry): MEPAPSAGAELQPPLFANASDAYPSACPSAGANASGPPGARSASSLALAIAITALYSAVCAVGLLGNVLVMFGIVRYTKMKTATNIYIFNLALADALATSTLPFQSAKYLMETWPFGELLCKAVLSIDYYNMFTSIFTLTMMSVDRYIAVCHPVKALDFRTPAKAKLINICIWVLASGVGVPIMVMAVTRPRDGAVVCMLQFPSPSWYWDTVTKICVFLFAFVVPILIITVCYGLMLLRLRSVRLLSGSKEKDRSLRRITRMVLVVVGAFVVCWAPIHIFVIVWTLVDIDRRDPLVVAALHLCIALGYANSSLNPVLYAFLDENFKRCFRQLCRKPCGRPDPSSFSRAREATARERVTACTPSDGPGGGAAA

[6] = molecular target: Cytochrome P450 2D6 (Homo sapiens, UniProt P10635); conditions: bti-tn-5b1-4; further: in other assays of this panel Not Active means under 50% inhibition at 10 µM
Chain of Cytochrome P450 2D6 (P10635 whole entry): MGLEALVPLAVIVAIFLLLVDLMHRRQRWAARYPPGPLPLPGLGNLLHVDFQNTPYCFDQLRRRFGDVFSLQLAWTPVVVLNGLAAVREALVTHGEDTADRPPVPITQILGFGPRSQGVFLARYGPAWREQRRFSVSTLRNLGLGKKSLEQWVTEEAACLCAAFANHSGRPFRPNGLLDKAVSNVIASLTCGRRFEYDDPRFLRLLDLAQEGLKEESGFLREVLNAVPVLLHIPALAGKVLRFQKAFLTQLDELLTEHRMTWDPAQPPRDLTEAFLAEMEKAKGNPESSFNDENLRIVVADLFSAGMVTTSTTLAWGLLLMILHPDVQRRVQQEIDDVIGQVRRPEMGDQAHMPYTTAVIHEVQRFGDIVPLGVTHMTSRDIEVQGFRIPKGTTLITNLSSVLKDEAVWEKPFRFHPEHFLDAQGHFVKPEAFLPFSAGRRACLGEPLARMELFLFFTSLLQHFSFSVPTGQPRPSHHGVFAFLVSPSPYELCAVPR

| Molecule | IC50 [1] | Ki [1] | IC50 [2] | IC50 [3] | IC50 [4] | IC50 [5] | IC50 [6] | Ki [6] | IC50 ([1]; read-out: IC50) [µM] | Ki [2] | Ki [3] | Ki [4] | Ki [5] |
| --- | --- | --- | --- | --- | --- | --- | --- | --- | --- | --- | --- | --- | --- |
| C=CCc1ccc(O)c(OC)c1 [EUGENOL] | Not Active | Not Active | Not Active | Not Active | Not Active | Not Active | Not Active | Not Active | – | – | – | – | – |
| Oc1cccc(O)c1O [PYROGALLOL] | Not Active | Not Active | Not Active | Not Active | Not Active | Not Active | Not Active | Not Active | – | – | – | – | – |
| C[C@]12C=CC(=O)C=C1CC[C@@H]1[C@@H]2[C@@H](O)C[C@@]2(C)[C@H]1CC[C@]2(O)C(=O)CO [PREDNISOLONE] | Not Active | Not Active | Not Active | Not Active | Not Active | Not Active | Not Active | Not Active | – | – | – | – | – |
| CC(=O)[C@H]1[C@H](C#N)C[C@H]2[C@@H]3CC=C4C[C@@H](O)CC[C@]4(C)[C@H]3CC[C@@]21C [PREGNENOLONE CARBONITRILE] | Not Active | Not Active | Not Active | Not Active | Not Active | Not Active | Not Active | Not Active | – | – | – | – | – |
| CC(C(=O)O)c1cccc(Oc2ccccc2)c1 (stereo not drawn) [FENOPROFEN] | Not Active | Not Active | Not Active | Not Active | Not Active | Not Active | Not Active | Not Active | – | – | – | – | – |
| NNc1nncc2ccccc12 [HYDRALAZINE] | Not Active | Not Active | Not Active | Not Active | Not Active | Not Active | Not Active | Not Active | – | – | – | – | – |
| O=C1O[C@H]([C@@H](O)CO)C(O)=C1O [ASCORBIC ACID] | Not Active | Not Active | Not Active | Not Active | Not Active | Not Active | Not Active | Not Active | – | – | – | – | – |
| NC(=O)C[S+]([O-])C(c1ccccc1)c1ccccc1 (stereo not drawn) [MODAFINIL] | Not Active | Not Active | Not Active | Not Active | Not Active | Not Active | Not Active | Not Active | – | – | – | – | – |
| CCN(CC)CCOCCC1=CCC2CC1C2(C)C (stereo not drawn) [MYRTECAINE] | Not Active | Not Active | Not Active | Not Active | Not Active | Not Active | Not Active | Not Active | – | – | – | – | – |
| GRAMICIDIN | – | – | Not Active | Not Active | Not Active | Not Active | Not Active | Not Active | 5.14 | Not Active | Not Active | Not Active | Not Active |
| CCC1(C)CC(=O)NC1=O (stereo not drawn) [ETHOSUXIMIDE] | Not Active | Not Active | Not Active | Not Active | Not Active | Not Active | Not Active | Not Active | – | – | – | – | – |
| Cc1nnc2n1-c1ccc(Cl)cc1C(c1ccccc1)=NC2 [ALPRAZOLAM] | Not Active | Not Active | Not Active | Not Active | Not Active | Not Active | Not Active | Not Active | – | – | – | – | – |
| COc1ccc(C(=O)N2CCCC2=O)cc1 | Not Active | Not Active | Not Active | Not Active | Not Active | Not Active | Not Active | Not Active | – | – | – | – | – |
| GENTAMICIN | Not Active | Not Active | Not Active | Not Active | Not Active | Not Active | Not Active | Not Active | – | Not Active | Not Active | Not Active | Not Active |
| CC(C)NNC(=O)c1ccncc1 [IPRONIAZID] | Not Active | Not Active | Not Active | Not Active | Not Active | Not Active | Not Active | Not Active | – | – | – | – | – |
| O=c1cc(N2CCOCC2)oc2c(-c3ccccc3)cccc12 [LY-294002] | Not Active | Not Active | Not Active | Not Active | Not Active | Not Active | Not Active | Not Active | – | – | – | – | – |
| Nc1ccc2c3c(cccc13)C(=O)NC2=O | Not Active | Not Active | Not Active | Not Active | Not Active | Not Active | Not Active | Not Active | – | – | – | – | – |
| CC(C)(C)NC(=O)[C@H]1CC[C@H]2[C@@H]3CC[C@H]4NC(=O)C=C[C@]4(C)[C@H]3CC[C@]12C [FINASTERIDE] | Not Active | Not Active | Not Active | Not Active | Not Active | Not Active | Not Active | Not Active | – | – | – | – | – |
| CC[C@H](C)[C@H]1O[C@]2(C=C[C@@H]1C)C[C@@H]1C[C@@H](C/C=C(\C)[C@@H](O[C@H]3C[C@H](OC)[C@@H](O[C@H]4C[C@H](OC)[C@@H](O)[C@H](C)O4)[C@H](C)O3)[C@@H](C)/C=C/C=C3\CO[C@@H]4[C@H](O)C(C)=C[C@@H](C(=O)O1)[C@]34O)O2.CO[C@H]1C[C@H](O[C@H]2[C@H](C)O[C@@H](O[C@@H]3/C(C)=C/C[C@@H]4C[C@@H](C[C@]5(C=C[C@H](C)[C@@H](C(C)C)O5)O4)OC(=O)[C@@H]4C=C(C)[C@@H](O)[C@H]5OC/C(=C\C=C\[C@@H]3C)[C@]54O)C[C@@H]2OC)O[C@@H](C)[C@@H]1O [ABAMECTIN] | Not Active | Not Active | Not Active | Not Active | Not Active | Not Active | Not Active | Not Active | – | – | – | – | – |
| Cn1c(=O)c2[nH]cnc2n(C)c1=O.Cn1c(=O)c2[nH]cnc2n(C)c1=O.NCCN [AMINOPHYLLINE] | Not Active | Not Active | Not Active | Not Active | Not Active | Not Active | Not Active | Not Active | – | – | – | – | – |
| CN/C(=N\CCSCc1nc[nH]c1C)NC#N [CIMETIDINE] | Not Active | Not Active | Not Active | Not Active | Not Active | Not Active | Not Active | Not Active | – | – | – | – | – |
| CCC(=O)O[C@]1(C(=O)CCl)[C@@H](C)C[C@H]2[C@@H]3CCC4=CC(=O)C=C[C@]4(C)[C@@]3(F)[C@@H](O)C[C@@]21C [CLOBETASOL PROPIONATE] | Not Active | Not Active | Not Active | Not Active | Not Active | Not Active | Not Active | Not Active | – | – | – | – | – |
| CCCN(CCC)S(=O)(=O)c1ccc(C(=O)O)cc1 [PROBENECID] | Not Active | Not Active | Not Active | Not Active | Not Active | Not Active | Not Active | Not Active | – | – | – | – | – |
| O=C(O)CCNC(=O)c1ccccc1 [BETAMIPRON] | Not Active | Not Active | Not Active | Not Active | Not Active | Not Active | Not Active | Not Active | – | – | – | – | – |
| C[C@H]1O[C@@H](n2cc(F)c(=O)[nH]c2=O)[C@H](O)[C@@H]1O [DOXIFLURIDINE] | Not Active | Not Active | Not Active | Not Active | Not Active | Not Active | Not Active | Not Active | – | – | – | – | – |
| CC[C@H]1CN2CCc3cc(OC)c(OC)cc3[C@@H]2C[C@@H]1C[C@H]1NCCc2cc(OC)c(OC)cc21 [EMETINE] | Not Active | Not Active | Not Active | Not Active | Not Active | Not Active | Not Active | Not Active | – | – | – | – | – |
| O=c1cnn([C@@H]2O[C@H](CO)[C@@H](O)[C@H]2O)c(=O)[nH]1 [6-AZAURIDINE] | Not Active | Not Active | Not Active | Not Active | Not Active | Not Active | Not Active | Not Active | – | – | – | – | – |
